Test results: patent US11987586B1 (TAKEDA PHARMACEUTICAL COMPANY LIMITED, priority 2022, dated 2024)

Biological target: T1, human OX2 receptor (Homo sapiens, UniProt O43614)
T1 construct: expressed in transfected cells
T1 sequence (O43614 1-444): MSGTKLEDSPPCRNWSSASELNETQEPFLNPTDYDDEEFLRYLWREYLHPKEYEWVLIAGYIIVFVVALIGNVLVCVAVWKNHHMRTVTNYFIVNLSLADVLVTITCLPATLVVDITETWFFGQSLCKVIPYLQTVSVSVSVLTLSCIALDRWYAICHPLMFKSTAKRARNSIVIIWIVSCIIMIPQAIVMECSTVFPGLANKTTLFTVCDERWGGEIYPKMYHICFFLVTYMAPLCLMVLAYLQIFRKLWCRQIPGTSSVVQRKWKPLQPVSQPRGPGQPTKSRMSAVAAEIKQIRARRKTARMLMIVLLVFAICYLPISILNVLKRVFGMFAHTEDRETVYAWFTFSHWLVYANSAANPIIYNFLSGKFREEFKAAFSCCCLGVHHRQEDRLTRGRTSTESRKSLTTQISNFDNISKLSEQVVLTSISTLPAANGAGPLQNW
Assay: Measurement of orexin type 2 receptor agonist activity (calcium fluorescence, Fluo-4, FDSS)
Format: cell-based
Conditions: 3 uM test compound; CHO cells expressing human OX2 receptor; DMSO = 0%, 10 nM orexin A (human) = 100%
Summary of the method: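 Agonist activity (%) was normalised to the response to 10 nM final human orexin A (100%) and to the DMSO vehicle (0%). The response was measured as the Fluo-4 calcium signal, read kinetically over 1 min 40 s after compound addition to Fluo-4/probenecid-loaded stable CHO-K1 clones expressing human OX2 (aa 1-444).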

| Structure (SMILES) | OX2R agonist activity (3 uM, %) [%] |
| --- | --- |
| CCS(=O)(=O)N[C@@H]1CN2C(=O)N(c3noc4cc(C)cc(-c5c(F)cc(F)cc5F)c34)C[C@@H]2C1(F)F [Example 153, N-{(6R,7aR)-7,7-difluoro-2-[6-methyl-4-(2,4,6-trifluorophenyl)-1,2-benzoxazol-3-yl]-3-oxohexahydro-1H-pyrrolo[1,2-c]imidazol-6-yl}ethanesulfonamide] | 96 |
| CCS(=O)(=O)N[C@@H]1CN2C(=O)N(c3noc4cc(C)cc(-c5c(F)cccc5F)c34)C[C@@H]2C1(F)F [Example 154, N-{(6R,7aR)-2-[4-(2,6-difluorophenyl)-6-methyl-1,2-benzoxazol-3-yl]-7,7-difluoro-3-oxohexahydro-1H-pyrrolo[1,2-c]imidazol-6-yl}ethanesulfonamide] | 98 |
| CCS(=O)(=O)N[C@@H]1Cn2c(cn(-c3noc4cc(C)cc(-c5c(F)cc(F)cc5F)c34)c2=O)C1(F)F [Example 155, N-{(6R)-7,7-difluoro-2-[6-methyl-4-(2,4,6-trifluorophenyl)-1,2-benzoxazol-3-yl]-3-oxo-2,5,6,7-tetrahydro-3H-pyrrolo[1,2-c]imidazol-6-yl}ethanesulfonamide] | 96 |
| CCS(=O)(=O)N[C@@H]1Cn2c(cn(-c3noc4cc(C)cc(-c5c(F)cccc5F)c34)c2=O)C1(F)F [Example 156, N-{(6R)-2-[4-(2,6-difluorophenyl)-6-methyl-1,2-benzoxazol-3-yl]-7,7-difluoro-3-oxo-2,5,6,7-tetrahydro-3H-pyrrolo[1,2-c]imidazol-6-yl}ethanesulfonamide] | 102 |
| CCS(=O)(=O)N[C@@H]1Cn2c(cn(-c3noc4cc(C(F)(F)F)cc(-c5c(F)cc(F)cc5F)c34)c2=O)C1(F)F [Example 157, N-{(6R)-7,7-difluoro-3-oxo-2-[6-(trifluoromethyl)-4-(2,4,6-trifluorophenyl)-1,2-benzoxazol-3-yl]-2,5,6,7-tetrahydro-3H-pyrrolo[1,2-c]imidazol-6-yl}ethanesulfonamide] | 96 |
| CCOc1cc(-c2c(F)cc(F)cc2F)c2c(N3C[C@H]4N(C[C@@H](NS(C)(=O)=O)C4(F)F)C3=O)noc2c1 [Example 160, N-{(6R,7aR)-2-[6-ethoxy-4-(2,4,6-trifluorophenyl)-1,2-benzoxazol-3-yl]-7,7-difluoro-3-oxohexahydro-1H-pyrrolo[1,2-c]imidazol-6-yl}methanesulfonamide] | 99 |
| CCS(=O)(=O)N[C@@H]1CN2C(=O)N(c3noc4cc(C)c(F)c(-c5c(F)cc(F)cc5F)c34)C[C@@H]2C1(F)F [Example 162, N-{(6R,7aR)-7,7-difluoro-2-[5-fluoro-6-methyl-4-(2,4,6-trifluorophenyl)-1,2-benzoxazol-3-yl]-3-oxohexahydro-1H-pyrrolo[1,2-c]imidazol-6-yl}ethanesulfonamide] | 102 |
| CCS(=O)(=O)N[C@@H]1Cn2c(cn(-c3noc4cc(C)c(F)c(-c5c(F)cc(F)cc5F)c34)c2=O)C1(F)F [Example 163, N-{(6R)-7,7-difluoro-2-[5-fluoro-6-methyl-4-(2,4,6-trifluorophenyl)-1,2-benzoxazol-3-yl]-3-oxo-2,5,6,7-tetrahydro-3H-pyrrolo[1,2-c]imidazol-6-yl}ethanesulfonamide] | 103 |
| Cc1cc(-c2c(F)cccc2F)c2c(N3C[C@H]4N(C[C@@H](NS(C)(=O)=O)C4(F)F)C3=O)noc2n1 [Example 164, N-{(6R,7aR)-2-[4-(2,6-difluorophenyl)-6-methyl[1,2]oxazolo[5,4-b]pyridin-3-yl]-7,7-difluoro-3-oxohexahydro-1H-pyrrolo[1,2-c]imidazol-6-yl}methanesulfonamide] | 108 |
| CCS(=O)(=O)N[C@@H]1Cn2c(cn(-c3noc4cc(C(F)F)cc(-c5c(F)cc(F)cc5F)c34)c2=O)C1(F)F [Example 165, N-{(6R)-2-[6-(difluoromethyl)-4-(2,4,6-trifluorophenyl)-1,2-benzoxazol-3-yl]-7,7-difluoro-3-oxo-2,5,6,7-tetrahydro-3H-pyrrolo[1,2-c]imidazol-6-yl}ethanesulfonamide] | 97 |
| CCS(=O)(=O)N[C@@H]1Cn2c(cn(-c3noc4cc(COC)cc(-c5c(F)cc(F)cc5F)c34)c2=O)C1(F)F [Example 166, N-{(6R)-7,7-difluoro-2-[6-(methoxymethyl)-4-(2,4,6-trifluorophenyl)-1,2-benzoxazol-3-yl]-3-oxo-2,5,6,7-tetrahydro-3H-pyrrolo[1,2-c]imidazol-6-yl}ethanesulfonamide] | 92 |
| CCS(=O)(=O)N[C@@H]1Cn2c(cn(-c3noc4cc(COC)cc(-c5c(F)cccc5F)c34)c2=O)C1(F)F [Example 167, N-{(6R)-2-[4-(2,6-difluorophenyl)-6-(methoxymethyl)-1,2-benzoxazol-3-yl]-7,7-difluoro-3-oxo-2,5,6,7-tetrahydro-3H-pyrrolo[1,2-c]imidazol-6-yl}ethanesulfonamide] | 97 |
| CCS(=O)(=O)N[C@@H]1CN2C(=O)N(c3noc4cc(F)c(F)c(-c5c(F)cccc5F)c34)C[C@@H]2C1(F)F [Example 168, N-{(6R,7aR)-2-[4-(2,6-difluorophenyl)-5,6-difluoro-1,2-benzoxazol-3-yl]-7,7-difluoro-3-oxohexahydro-1H-pyrrolo[1,2-c]imidazol-6-yl}ethanesulfonamide] | 102 |
| CCS(=O)(=O)N[C@@H]1Cn2c(cn(-c3noc4cc(C)c(F)c(-c5c(F)cccc5F)c34)c2=O)C1(F)F [Example 169, N-{(6R)-2-[4-(2,6-difluorophenyl)-5-fluoro-6-methyl-1,2-benzoxazol-3-yl]-7,7-difluoro-3-oxo-2,5,6,7-tetrahydro-3H-pyrrolo[1,2-c]imidazol-6-yl}ethanesulfonamide] | 103 |
| CCS(=O)(=O)N[C@@H]1Cn2c(cn(-c3noc4cc(F)c(F)c(-c5c(F)cccc5F)c34)c2=O)C1(F)F [Example 170, N-{(6R)-2-[4-(2,6-difluorophenyl)-5,6-difluoro-1,2-benzoxazol-3-yl]-7,7-difluoro-3-oxo-2,5,6,7-tetrahydro-3H-pyrrolo[1,2-c]imidazol-6-yl}ethanesulfonamide] | 94 |
| CS(=O)(=O)N[C@@H]1CN2C(=O)N(c3noc4cc(F)c(F)c(-c5c(F)cc(F)cc5F)c34)C[C@@H]2C1(F)F [Example 171, N-{(6R,7aR)-2-[5,6-Difluoro-4-(2,4,6-trifluorophenyl)-1,2-benzoxazol-3-yl]-7,7-difluoro-3-oxohexahydro-1H-pyrrolo[1,2-c]imidazol-6-yl}methanesulfonamide] | 100 |
| CCS(=O)(=O)N[C@@H]1CN2C(=O)N(c3noc4cc(F)c(F)c(-c5c(F)cc(F)cc5F)c34)C[C@@H]2C1(F)F [Example 172, N-{(6R,7aR)-2-[5,6-difluoro-4-(2,4,6-trifluorophenyl)-1,2-benzoxazol-3-yl]-7,7-difluoro-3-oxohexahydro-1H-pyrrolo[1,2-c]imidazol-6-yl}ethanesulfonamide] | 98 |
| Cc1cc(-c2c(F)cc(F)cc2F)c2c(-n3cc4n(c3=O)C[C@@H](NS(C)(=O)=O)C4(F)F)noc2n1 [Example 174, N-{(6R)-7,7-Difluoro-2-[6-methyl-4-(2,4,6-trifluorophenyl) [1,2]oxazolo [5,4-b]pyridin-3-yl]-3-oxo-2,5,6,7-tetrahydro-3H-pyrrolo[1,2-c]imidazol-6-yl}methanesulfonamide] | 95 |
| CCS(=O)(=O)N[C@@H]1CN2C(=O)N(c3noc4nc(C)cc(-c5c(F)cc(F)cc5F)c34)C[C@@H]2C1(F)F [Example 175, N-{(6R,7aR)-7,7-difluoro-2-[6-methyl-4-(2,4,6-trifluorophenyl)[1,2]oxazolo[5,4-b]pyridin-3-yl]-3-oxohexahydro-1H-pyrrolo[1,2-c]imidazol-6-yl}ethanesulfonamide] | 98 |
| CS(=O)(=O)N[C@@H]1Cn2c(cn(-c3noc4cc(OC(F)(F)F)cc(-c5c(F)cc(F)cc5F)c34)c2=O)C1(F)F [Example 176, N-{(6R)-7,7-difluoro-3-oxo-2-[6-(trifluoromethoxy)-4-(2,4,6-trifluorophenyl)-1,2-benzoxazol-3-yl]-2,5,6,7-tetrahydro-3H-pyrrolo[1,2-c]imidazol-6-yl}methanesulfonamide] | 89 |
| CCS(=O)(=O)N[C@@H]1Cn2c(cn(-c3noc4cc(OC(F)F)cc(-c5c(F)cc(F)cc5F)c34)c2=O)C1(F)F [Example 179, N-{(6R)-2-[6-(difluoromethoxy)-4-(2,4,6-trifluorophenyl)-1,2-benzoxazol-3-yl]-7,7-difluoro-3-oxo-2,5,6,7-tetrahydro-3H-pyrrolo[1,2-c]imidazol-6-yl}ethanesulfonamide] | 109 |
| Cc1cc(-c2c(F)cccc2F)c2c(-n3cc4n(c3=O)C[C@@H](NS(C)(=O)=O)C4(F)F)noc2c1 [Example 180, N-{(6R)-2-[4-(2,6-difluorophenyl)-6-methyl-1,2-benzoxazol-3-yl]-7,7-difluoro-3-oxo-2,5,6,7-tetrahydro-3H-pyrrolo[1,2-c]imidazol-6-yl}methanesulfonamide] | 100 |
